Test results as given in patent publication US20190085024A1, “Alpha-Ketoamide Inhibitors Of Cysteine Proteases” (Phelix Therapeutics, priority 2017, published 2019).
Where two headings read alike, the source gives them in different places. *1 amine or outer side, *2 acyl side, *3 side chain or, on linkers, in order; H or OH if unused. Where a SMILES comes first, the peptide text is derived from it. [ ]: non-standard residue; d: D form. The star is where a group is joined. 2Nal = N[CH](Cc1ccc2ccccc2c1)C(=O)O; X1 = CCC(C)C(N[*:1])C(=O)C(=O)[*:2]; Cbz = O=C(OCc1ccccc1)*

Assays:
Cat K = target: T1, Cat K (Homo sapiens, UniProt P43235); experiment: Cat K inhibition; format: biochemical
T1 sequence (P43235 115-329): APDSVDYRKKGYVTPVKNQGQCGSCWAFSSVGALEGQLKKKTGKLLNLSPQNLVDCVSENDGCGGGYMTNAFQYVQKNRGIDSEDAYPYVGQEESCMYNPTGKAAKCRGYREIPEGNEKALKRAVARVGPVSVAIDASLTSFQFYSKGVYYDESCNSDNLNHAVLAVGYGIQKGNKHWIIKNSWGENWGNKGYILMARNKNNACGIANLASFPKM

Cathepsin L = Cathepsin L (Homo sapiens, UniProt P07711); experiment: Cathepsin L enzyme assay; format: biochemical; conditions: Ki by Morrison equation; pH 5.5, substrate Z-Phe-Arg-Amc; read-out: Cat L
From the text: Two wells contained DMSO only for controls.
Velocity was converted to μM/sec.

[1] = tested on: EBOV WT (Ebola Wild Type); experiment: microbe, parasite or virus in culture; format: cell-based; conditions: read-out: EBOV WT (μM) (Ebola Wild Type)
MERS WT = experiment: microbe, parasite or virus in culture; format: cell-based
[2] = tested on: MARV WT (Marburg Wild Type); experiment: organism not typed; format: cell-based; conditions: read-out: MARV WT (μM) (Marburg Wild Type)
Cathepsin B = Cathepsin B (Homo sapiens, UniProt P07858); experiment: Cathepsin B enzyme assay; conditions: Cat B (μM), Ki by Morrison equation; pH 6.0, substrate Z-Phe-Arg-Amc
Calpain = Calpain enzyme assay; format: biochemical; conditions: Ki by Morrison equation; pH 7.5, 5 mM CaCl2
Cat S = Cat S (Homo sapiens, UniProt P25774); experiment: Cat S inhibition; format: biochemical
Collagen = experiment: Fibrosis-Sirius Red Collagen Assay; format: cell-based
SMA = experiment: Fibrosis-SMA Elisa; format: cell-based
[3] = Middle East respiratory syndrome-related coronavirus, read-out: MERS WT (μM)

Cathepsin L, sequence (P07711 114-333, species assumed): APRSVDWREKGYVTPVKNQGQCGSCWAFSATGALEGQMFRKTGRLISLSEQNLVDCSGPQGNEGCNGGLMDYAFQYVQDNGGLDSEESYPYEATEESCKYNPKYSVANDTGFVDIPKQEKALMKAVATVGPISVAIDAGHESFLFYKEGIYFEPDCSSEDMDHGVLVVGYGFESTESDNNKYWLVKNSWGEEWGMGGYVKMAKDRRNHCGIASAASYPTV
Cat S, sequence (P25774 115-331): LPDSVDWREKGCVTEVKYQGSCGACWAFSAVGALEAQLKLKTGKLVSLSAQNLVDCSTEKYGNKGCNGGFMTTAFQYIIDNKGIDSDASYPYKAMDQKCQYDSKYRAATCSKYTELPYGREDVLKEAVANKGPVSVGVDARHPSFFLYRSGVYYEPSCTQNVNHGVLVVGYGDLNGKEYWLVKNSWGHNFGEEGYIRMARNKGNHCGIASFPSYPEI

SMILES	Ki (Cat K)	Ki (Cathepsin L)	IC50 ([1]; Zaire ebolavirus)	IC50 (MERS WT; [3])	IC50 [2]	Ki (Cathepsin B)	Ki (Calpain)	Ki (Cat S)	IC50 (Collagen)	IC50 (SMA)	IC50 [1]	IC50 (MERS WT; read-out: MERS WT)
CC(C)CC(NC(=O)OCc1ccccc1)C(=O)NC(C)C(=O)C(=O)N1CC(C(=O)NC(Cc2ccccc2)C(N)=O)C1 (stereo not shown) [PHELIX187, benzyl (1-((4-(3-((1-amino-1-oxo-3-phenylpropan-2-yl)carbamoyl)azetidin-1-yl)-3,4-dioxobutan-2-yl)amino)-4-methyl-1-oxopentan-2-yl)carbamate]	3.8 nM	53.6 nM	3.66 µM	56 µM	13.5 µM	0.0479 µM	45.5 nM	2.04 nM				
CCC(C)C(NC(=O)C(CC(C)C)NC(=O)OCc1ccccc1)C(=O)C(=O)N1CC(C(=O)NC(Cc2ccc3ccccc3c2)C(N)=O)C1 (stereo not shown) [PHELIX297, benzyl (1-((1-(3-((1-amino-3-(naphthalen-2-yl)-1-oxopropan-2-yl)carbamoyl)azetidin-1-yl)-4-methyl-1,2-dioxohexan-3-yl)amino)-4-methyl-1-oxopentan-2-yl)carbamate]		42.4 nM				0.235 µM	39.9 nM		3800 nM	3400 nM		
CCC(C)C(NC(=O)C(CC(C)C)NC(=O)C(Cc1ccccc1)NC(=O)OCc1ccccc1)C(=O)C(=O)NCC(=O)NC(Cc1ccc2ccccc2c1)C(N)=O (stereo not shown) [PHELIX270, benzyl (1-amino-9-(sec-butyl)-12-isobutyl-2-(naphthalen-2-ylmethyl)-1,4,7,8,11,14-hexaoxo-16-phenyl-3,6,10,13-tetraazahexadecan-15-yl)carbamate] (Cbz-FL[X1]G[2Nal]-NH2; configuration not given here)		1.82 nM		> 30 µM		> 10 µM	0.53 nM		3100 nM			
CC(C)CC(NC(=O)C(Cc1ccccc1)NC(=O)OCc1ccccc1)C(=O)NC(Cc1ccccc1)C(=O)C(=O)NC(CCCNC(=N)N)C(N)=O (stereo not shown) [PHELIX254, benzyl (1-amino-10-benzyl-6-carbamoyl-1-imino-13-isobutyl-8,9,12,15-tetraoxo-17-phenyl-2,7,11,14-tetraazaheptadecan-16-yl)carbamate]		0.71 nM		> 30 µM		0.0432 µM	3.42 nM		3400 nM			
CC(NC(=O)C(Cc1ccc2ccccc2c1)NC(=O)Cc1ccccc1)C(=O)C(=O)NC(Cc1ccccc1)C(=O)NC(C)(C)C(N)=O (stereo not shown) [PHELIX206, N-(1-((1-amino-2-methyl-1-oxopropan-2-yl)amino)-1-oxo-3-phenylpropan-2-yl)-3-(3-(naphthalen-2-yl)-2-(2-phenylacetamido)propanamido)-2-oxobutanamide]	> 10000 nM	6.52 nM	2.51 µM	12.6 µM	4.68 µM	0.12 µM	> 10000 nM	3.96 nM				
CC[C@H](C)[C@H](NC(=O)C(=O)C(Cc1ccccc1)NC(=O)C(Cc1ccccc1)NC(=O)Cc1ccccc1)C(=O)N1CCCC1C(N)=O (stereo partly shown) [PHELIX204, 1-((2-oxo-4-phenyl-3-(3-phenyl-2-(2-phenylacetamido)propanamido)butanoyl)isoleucyl)pyrrolidine-2-carboxamide]	9.3 nM	0.01 nM	0.13 µM	1.8 µM	0.42 µM	0.277 µM	204 nM	0.44 nM				
CC(NC(=O)C(Cc1ccccc1)NC(=O)Cc1ccccc1)C(=O)C(=O)NC(Cc1ccccc1)C(=O)NC(Cc1ccc2ccccc2c1)C(N)=O (stereo not shown) [PHELIX215, N-(1-((1-amino-3-(naphthalen-2-yl)-1-oxopropan-2-yl)amino)-1-oxo-3-phenylpropan-2-yl)-2-oxo-3-(3-phenyl-2-(2-phenylacetamido)propanamido)butanamide]	22.2 nM	0.18 nM			0.16 µM	9.24 µM	> 10000 nM	0.48 nM			0.02 µM	0.99 µM
CCC(C)C(NC(=O)C(CC(C)C)NC(=O)CN1CCOCC1)C(=O)C(=O)NCC(=O)NC(Cc1ccc2ccccc2c1)C(N)=O (stereo not shown) [PHELIX314, N-(2-((1-amino-3-(naphthalen-2-yl)-1-oxopropan-2-yl)amino)-2-oxoethyl)-4-methyl-3-(4-methyl-2-(2-morpholinoacetamido)pentanamido)-2-oxohexanamide]		3.06 nM				0.387 µM	2.44 nM			1200 nM		
CCC(C)C(NC(=O)C(CC(C)C)NC(=O)OCc1ccccc1)C(=O)C(=O)NC(Cc1ccc2ccccc2c1)C(N)=O (stereo not shown) [PHELIX309, benzyl (1-((1-((1-amino-3-(naphthalen-2-yl)-1-oxopropan-2-yl)amino)-4-methyl-1,2-dioxohexan-3-yl)amino)-4-methyl-1-oxopentan-2-yl)carbamate]		9.76 nM				> 10 µM	1.34 nM		2700 nM	2000 nM		
CC(C)CC(NC(=O)OCc1ccccc1)C(=O)NC(C)C(=O)C(=O)NCC(=O)NC(Cc1ccc2ccccc2c1)C(N)=O (stereo not shown) [PHELIX184, benzyl (1-((4-((2-((1-amino-3-(naphthalen-2-yl)-1-oxopropan-2-yl)amino)-2-oxoethyl)amino)-3,4-dioxobutan-2-yl)amino)-4-methyl-1-oxopentan-2-yl)carbamate]	0.5 nM	4.85 nM	1.87 µM	7.2 µM	3.34 µM	0.641 µM	10.3 nM	1 nM				
